# Results: US12187713B2, “Immunomodulators, compositions and methods thereof” (Betta Pharmaceuticals Co., Ltd, priority 2019, dated 2025)
# Key:
# [1] = molecular target: PD-1/PD-L1 (Homo sapiens (Human), UniProt Q9NZQ7); test: PD-1/PD-L1 Binding Assay (Alphascreen)
# Outline: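 PD-1/PD-L1 binding detected by anti-6×His acceptor and streptavidin donor beads after 120 min in the dark at 25 °C. Beforehand, the two proteins were incubated 15 min at 25 °C with inhibitor at 0.015–300 nM (1% DMSO). IC50 comes from a log concentration–response curve.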
# [2] = Pharmacokinetic Assay, single oral dose 5 mg/kg (Table 12); format: in vivo; details: mouse, plasma concentration, C57 female mice, single oral dose 5 mg/kg
# Outline: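 Adult female C57 mice (n=3) got one intragastric dose of 5 mg/kg in 15% DMSO, 10% Kolliphor HS 15, 75% saline. Retro-orbital blood was taken at 30 min, 2 h and 4 h into K2-EDTA. Plasma levels were measured by LC-MS/MS.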
# Chain of PD-1/PD-L1 (Q9NZQ7 19-238): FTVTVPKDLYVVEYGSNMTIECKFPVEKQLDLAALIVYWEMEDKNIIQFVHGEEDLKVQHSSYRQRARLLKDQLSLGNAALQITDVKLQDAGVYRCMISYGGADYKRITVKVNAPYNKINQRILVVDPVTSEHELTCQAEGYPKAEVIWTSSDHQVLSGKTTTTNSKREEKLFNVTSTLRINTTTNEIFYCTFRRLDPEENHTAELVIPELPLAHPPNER
IC50 ([1]; range symbols) [nM],concentration at 0.5 h [2] [ng/mL],concentration at 2 h [2] [ng/mL],concentration at 4 h [2] [ng/mL],IC50 ([1]; numeric values) [nM],Structure (SMILES)
5 to 50,115,468,383,,"C=C1CN(Cc2cc3nc(-c4cccc(-c5cccc(-c6nc7cc(CN8CCC[C@H]8C(=O)O)c(OC(F)F)cc7o6)c5C)c4C)oc3cc2OC(F)F)C1 [Example 81, ((6-(difluoromethoxy)-2-(3′-(6-(difluoromethoxy)-5-((3-methyleneazetidin-1-yl)methyl)benzo[d]oxazol-2-yl)-2,2′-dimethyl-[1,1′-biphenyl]-3-yl)benzo[d]oxazol-5-yl)methyl)-L-proline]"
,68.6,155,81.1,25,"Cc1c(-c2nc3cc(CNCC(O)C(F)(F)F)c(OC(F)F)cc3o2)cccc1-c1cccc(-c2nc3cc(CN4CCC[C@H]4C(=O)O)c(OC(F)F)cc3o2)c1C (stereo partly drawn) [Example 22, ((6-(difluoromethoxy)-2-(3′-(6-(difluoromethoxy)-5-(((3,3,3-trifluoro-2-hydroxypropyl)amino)methyl)benzo[d]oxazol-2-yl)-2,2′-dimethyl-[1,1′-biphenyl]-3-yl)benzo[d]oxazol-5-yl)methyl)-L-proline]"
,65.6,237,152,1,"Cc1c(-c2nc3cc(CN4CCC[C@H]4C(=O)O)c(OC(F)F)cc3o2)cccc1-c1cccc(-c2nc3cc(CN4CC[C@@H](C)C4)cnc3o2)c1C [Example 114, ((6-(difluoromethoxy)-2-(2,2′-dimethyl-3′-(6-(((R)-3-methylpyrrolidin-1-yl)methyl)oxazolo [5,4-b]pyridin-2-yl)-[1,1′-biphenyl]-3-yl)benzo[d]oxazol-5-yl)methyl)-L-proline]"
,27.1,149,90,1.2,"Cc1c(-c2nc3cc(CN(C)[C@@H]4CCC[C@H]4O)c(OC(F)F)cc3o2)cccc1-c1cccc(-c2nc3cc(CN4CCC[C@H]4C(=O)O)c(OC(F)F)cc3o2)c1C [Example 57, ((6-(difluoromethoxy)-2-(3′-(6-(difluoromethoxy)-5-((((1R,2R)-2-hydroxycyclopentyl) (methyl)amino)methyl)benzo[d]oxazol-2-yl)-2,2′-dimethyl-[1,1′-biphenyl]-3-yl)benzo[d]oxazol-5-yl)methyl)-L-proline]"
0.1 to 5,376,404,219,,"Cc1c(-c2nc3cc(CN4CCC[C@H]4C(=O)O)c(OC(F)F)cc3o2)cccc1-c1cccc(-c2nc3cc(CN4CC[C@@H](C#N)C4)cc(C#N)c3o2)c1C [Example 165, ((2-(3′-(7-cyano-5-(((R)-3-cyanopyrrolidin-1-yl)methyl)benzo[d]oxazol-2-yl)-2,2′-dimethyl-[1,1′-biphenyl]-3-yl)-6-(difluoromethoxy)benzo[d]oxazol-5-yl)methyl)-L-proline]"
,131,150,74.2,27,"Cc1nc(-c2cccc(-c3cccc(-c4nc5cc(CN6CCC[C@H]6C(=O)O)c(OC(F)F)cc5o4)c3C)c2C)oc1CN1CCCC1 [Example 304, ((6-(difluoromethoxy)-2-(2,2′-dimethyl-3′-(4-methyl-5-(pyrrolidin-1-ylmethyl)oxazol-2-yl)-[1,1′-biphenyl]-3-yl)benzo[d]oxazol-5-yl)methyl)-L-proline]"

# More lines, now with the values behind:
Structure (SMILES),IC50 ([1]; range symbols) [nM],concentration at 0.5 h [2] [ng/mL],concentration at 2 h [2] [ng/mL],concentration at 4 h [2] [ng/mL],IC50 ([1]; numeric values) [nM]
"Cc1c(-c2nc3c(o2)CCC3)cccc1-c1cccc(-c2nc3cc(CN4CCC[C@H]4C(=O)O)c(OC(F)F)cc3o2)c1C [Example 204, ((6-(difluoromethoxy)-2-(3′-(5,6-dihydro-4H-cyclopenta[d]oxazol-2-yl)-2,2′-dimethyl-[1,1′-biphenyl]-3-yl)benzo[d]oxazol-5-yl)methyl)proline]",0.1 to 5,740,872,820,
"Cc1c(-c2nc3cc(CN4CC[C@@H](C(=O)O)C4)c(OC(F)F)cc3o2)cccc1-c1cccc(-c2nc3cc(CN4CC(C)(C)C4)c(OC(F)F)cc3o2)c1C [Example 85, (R)-1-((6-(difluoromethoxy)-2-(3′-(6-(difluoromethoxy)-5-((3,3-dimethylazetidin-1-yl)methyl)benzo[d]oxazol-2-yl)-2,2′-dimethyl-[1,1′-biphenyl]-3-yl)benzo[d]oxazol-5-yl)methyl)pyrrolidine-3-carboxylic acid]",0.1 to 5,75.9,146,135,
"Cc1c(-c2nc3cc(CN4CCC[C@H]4C(=O)O)c(OC(F)F)cc3o2)cccc1-c1cccc(-c2nc3cc(CN4CCCC4)c(F)c(F)c3n2CC(F)(F)F)c1C [Example 299, ((2-(3′-(6,7-difluoro-5-(pyrrolidin-1-ylmethyl)-1-(2,2,2-trifluoroethyl)-1H-benzo[d]imidazol-2-yl)-2,2′-dimethyl-[1,1′-biphenyl]-3-yl)-6-(difluoromethoxy)benzo[d]oxazol-5-yl)methyl)-L-proline]",> 50,27.9,212,89.2,
"Cc1c(-c2nc3cc(CN4CCC[C@H]4C(=O)O)c(OC(F)F)cc3o2)cccc1-c1cccc(-c2ccc(CN3CCCC3)cc2Cl)c1C [Example 231, ((2-(2″-chloro-2,2′-dimethyl-4″-(pyrrolidin-1-ylmethyl)-[1,1′:3′,1″-terphenyl]-3-yl)-6-(difluoromethoxy)benzo[d]oxazol-5-yl)methyl)-L-proline]",,36.9,160,156,78
"COc1nc(-c2cccc(-c3cccc(-c4nc5cc(CN6CCC[C@H]6C(=O)O)c(OC(F)F)cc5o4)c3C)c2C)ccc1CN1CC[C@H](C)C1 [Example 246, ((6-(difluoromethoxy)-2-(3′-(6-methoxy-5-(((S)-3-methylpyrrolidin-1-yl)methyl)pyridin-2-yl)-2,2′-dimethyl-[1,1′-biphenyl]-3-yl)benzo[d]oxazol-5-yl)methyl)-L-proline]",,87.2,261,285,1.8
"Cc1c(-c2ccc(CN3CCCC3)c(C#N)c2)cccc1-c1cccc(-c2nc3cc(CN4CCC[C@H]4C(=O)O)c(OC(F)F)cc3o2)c1C [Example 245, ((2-(3″-cyano-2,2′-dimethyl-4″-(pyrrolidin-1-ylmethyl)-[1,1′:3′,1″-terphenyl]-3-yl)-6-(difluoromethoxy)benzo[d]oxazol-5-yl)methyl)-L-proline]",,101,237,191,3.8
"Cc1c(-c2nc3cc(CN4CCC[C@H]4C(=O)O)c(OC(F)F)cc3o2)cccc1-c1cccc(-c2nc3cc(CN4CC[C@@H](C)C4)cc(C#N)c3o2)c1C [Example 131, ((2-(3′-(7-cyano-5-(((R)-3-methylpyrrolidin-1-yl)methyl)benzo[d]oxazol-2-yl)-2,2′-dimethyl-[1,1′-biphenyl]-3-yl)-6-(difluoromethoxy)benzo[d]oxazol-5-yl)methyl)-L-proline]",,108,301,470,2.3
